Consider three molecules from PMC3618488 (Chemical communications (Cambridge, England), 2013).

Read-outs that look alike come from different tables or passages of the source.

This assay addresses Pseudomonas aeruginosa elastase (LasB) (Pseudomonas aeruginosa, UniProt P14756). Put plainly: biochemical. In kind it is biochemical. As to conditions: for fold reduction in potency relative to tropolone (3): against LasB, compared with 3.

Chain of Pseudomonas aeruginosa elastase (LasB) (P14756 198-498): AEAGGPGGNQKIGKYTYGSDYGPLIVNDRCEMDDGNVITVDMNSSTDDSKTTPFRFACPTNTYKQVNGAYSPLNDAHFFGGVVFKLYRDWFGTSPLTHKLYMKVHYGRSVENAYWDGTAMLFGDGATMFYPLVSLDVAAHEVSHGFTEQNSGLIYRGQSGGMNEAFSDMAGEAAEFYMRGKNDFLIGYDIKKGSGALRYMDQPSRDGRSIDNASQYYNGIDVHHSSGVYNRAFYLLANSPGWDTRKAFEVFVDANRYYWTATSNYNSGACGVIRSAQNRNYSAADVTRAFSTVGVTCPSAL

The IC50 is the point on the concentration scale where inhibition reaches its midpoint. For `CC(C)c1cccc(=O)c(O)c1` [compound 5, β-thujaplicin], the IC50 worked out at 1340 ± 370 µM and the “fold reduction in potency relative to tropolone (3)” value is reported as ~ 3 fold. Consider `Nc1ccc(O)c(=O)cc1` [compound 6, 5-aminotropolone], for which the concentration for half-maximal inhibition (IC50) (read-out: IC50 for LasB inhibition) was 180 ± 1 µM. For acetyltropolone [compound 4], the “fold reduction in potency relative to tropolone (3)” value is listed as ~ 3 fold.
